# Experimental data as given in ChEMBL document CHEMBL3046567, “Potential applications of violacein: a microbial pigment” (Med Chem Res, 2012).
# pEC50, pIC50: −log10 of the molar value.
# What was measured:
# Mus musculus [1] = assay: Inhibition of HCl/ethanol- induced gastric damage in Mus musculus (mouse) at 30 mg/kg; type: functional; conditions: Stomach
# [2] = system: Mycobacterium tuberculosis; assay: Antimycobacterial activity against Mycobacterium tuberculosis H37Rv; type: functional
# V79 = assay: Cytotoxicity against Cricetulus griseus V79 cells; type: functional, cell-based
# Vero = assay: Cytotoxicity against […] Vero cells; type: cell-based; conditions: Chlorocebus sabaeus
# [3] = Cytotoxicity against Macaca mulatta (Rhesus monkey) MA104 cells; type: cell-based
# HEp-2 = assay: Cytotoxicity against Homo sapiens (human) Hep2 cells; type: cell-based
# Enterovirus C = assay: Antiviral activity against Enterovirus C (Poliovirus) infected HeLa cells at 0.063 ug/ml; type: functional
# U-937 = assay: Cytotoxicity against Homo sapiens (human) U937 cells; type: functional, cell-based
# MOLT-4 = assay: Cytotoxicity against Homo sapiens (human) MOLT4 cells; type: functional
# HCT-116 = assay: Cytotoxicity against Homo sapiens (human) HCT116 cells after 24 to 48 hr by MTT assay; type: functional, cell-based
# [4] = Cytotoxicity against Homo sapiens (human) Lymphocyte; type: cell-based
# NCI-H460 = assay: Cytotoxicity against Homo sapiens (human) NCI-H460 cells; type: functional
# [5] = Cytotoxicity against Mus musculus (mouse) EAT cells; type: functional, cell-based
# HL-60 = assay: Cytotoxicity against Homo sapiens (human) HL60 cells; type: functional, cell-based
# Trypanosoma cruzi = assay: Antitrypanosomal activity against trypomastigote of Trypanosoma cruzi Y infected in albino mouse assessed as reduction in parasitemia at 100 mg/kg, ip for 7 days; type: functional; conditions: 168 h, route intraperitoneal
# Leishmania amazonensis [6] = assay: Antiparasitic activity against Leishmania amazonensis MHOM/BR /77/LTB0016 after 24 hr; type: functional, organism-based; conditions: MHOM/BR /77/LTB0016, 24 h
# Caco-2 = assay: Cytotoxicity against Homo sapiens (human) Caco2 cells after 24 to 48 hr by MTT assay; type: functional, cell-based
# Leishmania amazonensis [7] = assay: Antiparasitic activity against Leishmania amazonensis MHOM/BR /77/LTB0016 promastigote at 460.8 uM; type: functional
# DLD-1 = assay: Cytotoxicity against Homo sapiens (human) DLD1 cells after 24 to 48 hr by MTT assay; type: functional, cell-based
# K562 = assay: Cytotoxicity against Homo sapiens (human) K562 cells; type: functional, cell-based
# HT-29 = assay: Cytotoxicity against Homo sapiens (human) HT-29 cells after 24 to 48 hr by MTT assay; type: functional, cell-based
# KM12 = assay: Cytotoxicity against Homo sapiens (human) KM12 cells; type: functional
# Mus musculus [8] = assay: Inhibition of HCl/ethanol- induced gastric damage in Mus musculus (mouse) at 10 mg/kg, po, sd; type: functional; conditions: Stomach
# [9] = Cytotoxicity against Macaca mulatta (Rhesus monkey) FRhK4 cells; type: cell-based; conditions: FRhK-4
# Leishmania amazonensis [10] = assay: Antiparasitic activity against Leishmania amazonensis MHOM/BR /77/LTB0016 promastigote at 16.8 uM; type: functional
smiles,measurement,setting,value
Cc1c(OCC(F)(F)F)ccnc1C[S+]([O-])c1nc2ccccc2[nH]1 (configuration not stated) [LANSOPRAZOLE],inhibition in vivo at 30 mg/kg,Mus musculus [1],63%
O=C1NC(c2c[nH]c3ccc(O)cc23)=C/C1=C1\C(=O)Nc2ccccc21 [VIOLACEIN],MBC,[2],128 µg/mL
same,MIC,[2],64 µg/mL
same,pIC50,V79,5.30
same,pIC50,Vero,5.66
same,pIC50,[3],5.66
same,pIC50,HEp-2,5.66
same,inhibition at 0.063 µg/mL,Enterovirus C,56%
same,pIC50,U-937,> 6.00
same,GI50,MOLT-4,0.03 µM
same,pIC50,HCT-116,< 5.82
same,pIC50,[4],5.00
same,GI50,NCI-H460,0.03 µM
same,pIC50,[5],5.30
same,pIC50,HL-60,6.10
same,inhibition in vivo at 100 mg/kg,Trypanosoma cruzi,4%
same,pEC50,Leishmania amazonensis [6],5.37
same,pIC50,Caco-2,< 5.82
same,inhibition at 460.8 µM,Leishmania amazonensis [7],100%
same,pIC50,DLD-1,< 5.82
same,pIC50,K562,> 6.00
same,pIC50,HT-29,< 5.82
same,GI50,KM12,0.03 µM
same,inhibition in vivo at 10 mg/kg,Mus musculus [8],85%
same,pIC50,[9],5.66
N=C(N)c1ccc(OCCCCCOc2ccc(C(=N)N)cc2)cc1 [PENTAMIDINE],inhibition at 16.8 µM,Leishmania amazonensis [10],100%
same,pEC50,Leishmania amazonensis [6],6.34
